# Measured values as given in patent publication EP4741379A1, “CLASS OF PROGRAMMED CELL DEATH INHIBITORS, PREPARATION METHOD THEREFOR AND USE THEREOF” (SHANGHAI INSTITUTE OF ORGANIC CHEMISTRY, CHINESE ACADEMY OF …, priority 2023, dated 2025).
# Like-named read-outs stand apart in the source and are kept apart here.
# Experiments:
# [1] = Pharmacokinetic properties in mice; type: in vivo
# Experimental: A biological test protocol was adopted to test drug metabolism of the compound in living mice. To verify the pharmacokinetic properties of the compounds of the present disclosure in vivo, the representative compound QY-18-26 was selected. Single administration via oral gavage (PO, 10 mg/kg) or intravenous injection (IV, 1 mg/kg) was used to test the pharmacokinetic properties of the compound in mice (n = 3).
# [2] = test system: TNFα-induced systemic inflammatory response syndrome; assay: TNFα-induced systemic inflammatory response syndrome in mice; type: in vivo; conditions: oral gavage 1 mg/kg, 20 minutes before TNFα tail vein injection
# Source text: A biological test protocol was adopted as follows: systemic inflammatory response syndrome (SIRS), also known as an inflammatory storm, refers to a nonspecific systemic inflammatory response caused by severe infections, multiple trauma, burns, ischemia-reperfusion, acute pancreatitis, and other infectious or non-infectious injuries. Under this condition, a large number of inflammatory factors are released, and in severe cases, the body loses control over the inflammatory response, leading to multiple organ failure and even death. Tail vein injection of tumor necrosis factor TNFα can induce systemic inflammatory response syndrome in mice, causing a drop in body temperature and death of mice. Effects of the representative compound QY-18-26 on TNFα-induced systemic inflammatory response syndrome were tested by monitoring changes in body temperature and death in mice. A known RIPK1 inhibitor Nec-1s was used as a control.
# Method: The compound to be tested was dissolved in 0.5% carboxymethyl cellulose at the required concentration one day in advance and sonicated overnight. […] Body temperature changes of mice were monitored using an infrared thermometer after injection. Effects of the compound were calculated using Prism GraphPad statistical software.
# [3] = test system: FADD-deficient Jurkat cells; assay: TNF-induced programmed necrosis of FADD-deficient Jurkat cells (Cell Titer-Glo viability); type: cell-based, human; conditions: for EC50: Homo sapiens, Jurkat
# Experimental: (§1) The biological test protocol is adopted to test effects of the compound on TNF-induced programmed necrosis of FADD (Fas-associated death domain)-deficient Jurkat cells and L929 cells.
# (§2) Two different stimulation methods were used: treating with tumor necrosis factor (TNFα) alone, or treating with TNFα in combination of mitochondrial-derived cysteine-aspartate activator (SMAC) SM164. Cell viability was determined by measuring chemiluminescence values, thereby assessing the bioactivity of the compounds in inhibiting programmed cell necrosis.
# (§3) Method: FADD-deficient Jurkat cells: FADD-deficient Jurkat cells (human peripheral blood leukemia T cell line) were cultured in vitro. After reaching logarithmic growth phase, cells were collected and centrifuged at 1000 rpm for 5 minutes. A supernatant was discarded. A cell concentration was adjusted to 2.5×10^5/mL, and cells were seeded into a 384-well plate at 40 µL per well. In the corresponding wells, 5 µL of SM164 (50 nM) and compounds diluted with cell culture medium were added. After pre-treatment at 37°C for 1 hour, 5 µL of TNFα (50 ng/mL) diluted with cell culture medium was added to each well as a stimulation group, while 5 µL of culture medium was added as a control group. After the plate was incubated in a cell culture incubator (37°C, 5% CO2) for 14 hours, 15 µL of Cell Titer-Glo solution was added to each well. Then, the plate was incubated at room temperature for 30 minutes. Luminescence was measured to assess intracellular ATP levels. Cell viability was set at 100% for unstimulated DMSO control wells. […] The plate was placed in a cell culture incubator (37°C, 5% CO2) and cultured for 12 hours. In the corresponding wells, 5 µL of SM164 (500 nM) and compounds diluted with cell culture medium were added. After pre-treatment at 37°C for 1 hour, 5 µL of TNFα (500 ng/mL) diluted with cell culture medium was added to the wells as a stimulation group, while 5 µL of culture medium was added as a control group. After the plate was incubated in the cell incubator (37°C, 5% CO2) for 14 hours, 15 µL of Cell Titer-Glo solution was added to each well. Then, the plate was incubated at room temperature for 30 minutes, and luminescence was measured to assess intracellular ATP levels. Cell viability was set at 100% for unstimulated DMSO control wells. EC50 values of the compounds were calculated using Prism GraphPad statistical software.
# L929 cells = assay: TNF-induced programmed necrosis of L929 cells (Cell Titer-Glo viability); type: cell-based, mouse; conditions: Mus musculus, L929
# Experimental: as §1, §2, §3
# RIPK1 (1-330) protein = biological target: T1, RIPK1 (1-330) protein (Homo sapiens, UniProt Q13546); assay: RIPK1 kinase activity (ADP-Glo); type: biochemical; conditions: RIPK1 (1-330) 2 µM, 37°C, 2 hours; read-out: effective half-maximal inhibitory concentration
# T1 construct: test effects of the compound QY-18-26 on kinase activity of RIPK1 (1-330) protein
# T1 sequence (Q13546 1-330): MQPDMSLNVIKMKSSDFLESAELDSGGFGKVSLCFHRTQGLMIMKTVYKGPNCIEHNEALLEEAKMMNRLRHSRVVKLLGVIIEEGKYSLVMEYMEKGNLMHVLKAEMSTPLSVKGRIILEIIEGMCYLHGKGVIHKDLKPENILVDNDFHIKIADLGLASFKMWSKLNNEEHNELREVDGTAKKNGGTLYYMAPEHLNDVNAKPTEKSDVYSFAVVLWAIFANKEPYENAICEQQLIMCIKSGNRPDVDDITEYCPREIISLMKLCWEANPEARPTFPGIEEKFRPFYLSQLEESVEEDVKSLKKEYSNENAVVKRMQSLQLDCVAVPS
# Experimental: A known clinical RIPK1 inhibitor SAR443122 was used as a control.
# Method: Into a 384-well plate, RIPK1 (1-330) protein with a final concentration of 2 µM and ATP with a corresponding concentration (in 1X kinase buffer) with a final concentration of 5 µL were added. At least 3 replicates were set for each group and reacted at 37°C for 2 hours. 5 µL of ADP-Glo reagent was added to stop the kinase reaction and remove any remaining ATP in the reaction system. The plate was incubated at room temperature for 40 minutes, added with 10 µL of Kinase Detection Reagent, which was used to convert ADP to ATP and introduce luciferase and luciferin to detect ATP in the system, and reacted at room temperature for 1 hour. Luminescence was measured using a 7500 Fast Real-Time PCR System. IC50 values of compounds in inhibiting the kinase reaction were calculated using Prism GraphPad statistical software.
# [4] = Brain penetration (brain/plasma drug concentrations) in mice; type: in vivo
# Experimental: (§4) A biological test protocol was adopted to test brain/plasma drug concentrations of the compound in living mice and rats. To verify the brain penetration properties of the compounds of the present disclosure in vivo, a representative compound QY-18-26 was selected. Single administration via oral gavage (PO, 10 mg/kg) or intravenous injection (IV, 2 mg/kg) was used to test brain/plasma drug concentrations of the compound in mice (n = 3) at different time points. At the same time, single administration via oral gavage (PO, 5 mg/kg) was used to test brain/plasma drug concentrations in rats (n = 3) at different time points.
# [5] = Brain penetration (brain/plasma drug concentrations) in rats; type: in vivo
# Experimental: as §4
# [6] = single dose, PO 10 mg/kg or IV 1 mg/kg
smiles,measurement,setting,value
"C[C@H](NC(=O)c1nnn(C)c1Cc1ccccc1)c1ccc(C#Cc2ccccn2)cc1 [QY-18-26, (S)-5-benzyl-1-methyl-N-(1-(4-(pyridin-2-ylethynyl)phenyl)ethyl)-1H-1,2,3-triazole-4-formamide]",plasma concentration,"[1]; oral gavage 10 mg/kg, for most of the 24-hour period",> 5 ng/mL
same,bioavailability (F),[1]; [6],very high
same,exposure (AUC),[1]; [6],very high
same,maximum plasma concentration (Cmax),[1]; [6],very high
same,time to peak concentration,[1]; [6],rapidly reached a peak concentration
same,"effect on TNFα-induced body temperature drop, inflammatory response, and death",[2],effectively counteract
same,EC50,"[3]; stimulation with TNFα + SM164, read-out: EC50 (nM) FADD^-/- Jurkat cells (human-derived) TNFα+ SM164",< 0.01 nM
same,EC50,"[3]; stimulation with TNFα alone, read-out: EC50 (nM) FADD^-/- Jurkat cells (human-derived) TNFα",< 0.01 nM
same,programmed necroptosis inhibitory activity compared to SAR443122,"[3]; TNFα alone or TNFα + SM164, human derived FADD-deficient Jurkat cells",stronger
same,EC50,"L929 cells; stimulation with TNFα + SM164, read-out: EC50 (nM) L929 cells (mouse-derived) TNFα+ SM164",< 0.01 nM
same,EC50,"L929 cells; stimulation with TNFα alone, read-out: EC50 (nM) L929 cells (mouse-derived) TNFα",< 0.01 nM
same,IC50,RIPK1 (1-330) protein,6.4 nM
same,brain-plasma distribution,[4]; at 4 hours,remained stable
same,Kp,"[4]; mouse, brain, single dose PO 10 mg/kg or IV 2 mg/kg, read-out: concentration in the brain as share of the concentration in plasma",~0.4
same,brain drug concentration,[4]; single dose PO 10 mg/kg or IV 2 mg/kg,> 5 ng/g
same,brain-plasma distribution,[5]; at 4 hours,remained stable
same,Kp,"[5]; rat, brain, single dose PO 5 mg/kg, read-out: concentration in the brain as share of the concentration in plasma",~0.4
same,brain drug concentration,[5]; single dose PO 5 mg/kg,> 5 ng/g
